Test results: patent US11420973B2, “Amide substituted indole compounds useful as TLR inhibitors” (BRISTOL-MYERS SQUIBB COMPANY, priority 2017, dated 2022)

Experiments:
human TLR8 = human TLR8 (Homo sapiens (Human), UniProt Q9NR97); test: TLR8 inhibition reporter assay (HEK-Blue SEAP reporter, R848 stimulation); settings: read-out: TLR8 IC50; HEK-Blue cells overexpressing human TLR8, R848 15.9 μM, SEAP reporter;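 note: SEAP driven by IFN-β minimal promoter with NF-κB and AP-1 sites, 22 h incubation, compounds 0.05 nM–50 µM, inhibition scaled between agonist plus DMSO and reference inhibitor wells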
Chain of human TLR8 (Q9NR97 27-1041): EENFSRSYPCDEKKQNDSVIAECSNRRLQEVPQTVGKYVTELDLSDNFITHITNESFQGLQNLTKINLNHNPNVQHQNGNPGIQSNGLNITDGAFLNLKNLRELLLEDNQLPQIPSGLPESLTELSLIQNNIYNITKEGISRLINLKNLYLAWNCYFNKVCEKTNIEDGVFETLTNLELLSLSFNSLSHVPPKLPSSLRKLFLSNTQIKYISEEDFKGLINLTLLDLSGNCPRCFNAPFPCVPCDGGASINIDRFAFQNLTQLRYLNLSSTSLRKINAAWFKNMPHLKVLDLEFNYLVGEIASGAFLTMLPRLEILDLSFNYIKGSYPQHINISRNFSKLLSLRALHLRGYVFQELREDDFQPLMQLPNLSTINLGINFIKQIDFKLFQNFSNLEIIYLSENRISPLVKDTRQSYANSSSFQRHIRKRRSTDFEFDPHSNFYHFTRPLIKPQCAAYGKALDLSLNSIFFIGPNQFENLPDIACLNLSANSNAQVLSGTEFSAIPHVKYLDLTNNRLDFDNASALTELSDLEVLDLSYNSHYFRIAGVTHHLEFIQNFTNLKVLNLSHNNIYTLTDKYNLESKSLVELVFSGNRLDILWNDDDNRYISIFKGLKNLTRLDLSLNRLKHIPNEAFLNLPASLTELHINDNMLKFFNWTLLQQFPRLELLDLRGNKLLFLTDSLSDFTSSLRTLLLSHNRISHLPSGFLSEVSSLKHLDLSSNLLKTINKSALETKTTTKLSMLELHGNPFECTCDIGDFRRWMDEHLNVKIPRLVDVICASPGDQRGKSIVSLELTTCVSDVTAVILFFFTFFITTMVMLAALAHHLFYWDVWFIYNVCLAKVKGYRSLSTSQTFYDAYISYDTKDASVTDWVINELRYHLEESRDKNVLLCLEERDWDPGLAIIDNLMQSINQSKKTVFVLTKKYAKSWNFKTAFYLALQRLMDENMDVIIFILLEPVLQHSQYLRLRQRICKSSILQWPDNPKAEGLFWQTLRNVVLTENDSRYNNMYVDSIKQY
Experimental: (§1) HEK-Blue™-cells (Invivogen) overexpressing human TLR7, TLR8 or TLR9 receptors were used for screening inhibitors of these receptors using an inducible SEAP (secreted embryonic alkaline phosphatase) reporter gene under the control of the IFN-β minimal promoter fused to five NF-κB and AP-1-binding sites. Briefly, cells are seeded into Greiner 384 well plates (15000 cells per well for TLR7, 20,000 for TLR8 and 25,000 for TLR9) and then treated with test compounds in DMSO to yield a final dose response concentration range of 0.05 nM-50 μM. After a 30 minute compound pre-treatment at room temperature, the cells are then stimulated with a TLR7 ligand (gardiquimod at a final concentration of 7.5 μM), TLR8 ligand (R848 at a final concentration of 15.9 μM) or TLR9 ligand (ODN2006 at a final concentration of 5 nM) to activate NF-κB and AP-1 which induce the production of SEAP. After a 22 hour incubation at 37° C., 5% CO2, SEAP levels are determined with the addition of HEK-Blue™ Detection reagent (Invivogen), a cell culture medium that allows for detection of SEAP, according to manufacturer's specifications.

human TLR9 = human TLR9 (Homo sapiens (Human), UniProt Q9NR96); test: TLR9 inhibition reporter assay (HEK-Blue SEAP reporter, ODN2006 stimulation); settings: read-out: TLR9 IC50; HEK-Blue cells overexpressing human TLR9, ODN2006 5 nM, SEAP reporter;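 note: SEAP reporter under IFN-β minimal promoter with five NF-κB and AP-1 sites, 22 h incubation, compounds 0.05 nM–50 µM, inhibition relative to agonist plus DMSO versus known inhibitor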
Chain of human TLR9 (Q9NR96 26-1032): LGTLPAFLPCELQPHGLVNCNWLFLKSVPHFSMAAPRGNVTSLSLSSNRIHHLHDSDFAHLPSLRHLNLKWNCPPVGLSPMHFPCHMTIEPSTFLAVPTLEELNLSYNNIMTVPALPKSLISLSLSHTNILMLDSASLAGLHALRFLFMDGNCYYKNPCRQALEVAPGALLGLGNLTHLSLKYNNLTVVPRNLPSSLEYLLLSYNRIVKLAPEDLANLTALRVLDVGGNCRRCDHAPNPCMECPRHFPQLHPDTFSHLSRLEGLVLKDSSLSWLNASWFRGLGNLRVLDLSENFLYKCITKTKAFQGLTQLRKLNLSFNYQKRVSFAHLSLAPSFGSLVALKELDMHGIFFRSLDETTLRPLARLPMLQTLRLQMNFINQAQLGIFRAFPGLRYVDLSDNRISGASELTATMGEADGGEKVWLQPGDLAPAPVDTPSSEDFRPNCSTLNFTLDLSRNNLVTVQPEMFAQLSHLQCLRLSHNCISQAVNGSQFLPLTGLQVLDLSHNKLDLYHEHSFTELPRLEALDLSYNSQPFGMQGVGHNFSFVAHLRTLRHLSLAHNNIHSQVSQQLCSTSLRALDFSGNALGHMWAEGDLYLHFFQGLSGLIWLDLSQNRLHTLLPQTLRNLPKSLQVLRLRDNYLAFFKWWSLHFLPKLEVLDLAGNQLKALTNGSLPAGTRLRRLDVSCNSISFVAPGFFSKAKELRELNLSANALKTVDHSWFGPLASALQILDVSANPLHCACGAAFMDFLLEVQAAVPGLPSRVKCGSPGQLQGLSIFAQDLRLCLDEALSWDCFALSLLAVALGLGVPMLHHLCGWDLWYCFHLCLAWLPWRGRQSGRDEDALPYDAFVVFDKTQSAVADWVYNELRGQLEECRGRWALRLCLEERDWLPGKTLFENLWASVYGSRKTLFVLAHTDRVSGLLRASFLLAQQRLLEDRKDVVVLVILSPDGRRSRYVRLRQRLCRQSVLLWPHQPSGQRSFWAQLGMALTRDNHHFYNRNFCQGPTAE
Experimental: as §1

human TLR7 = human TLR7 (Homo sapiens (Human), UniProt Q9NYK1); test: TLR7 inhibition reporter assay (HEK-Blue SEAP reporter, gardiquimod stimulation); type: cell-based; settings: HEK-Blue cells overexpressing human TLR7, gardiquimod 7.5 μM
Chain of human TLR7 (Q9NYK1 27-1049): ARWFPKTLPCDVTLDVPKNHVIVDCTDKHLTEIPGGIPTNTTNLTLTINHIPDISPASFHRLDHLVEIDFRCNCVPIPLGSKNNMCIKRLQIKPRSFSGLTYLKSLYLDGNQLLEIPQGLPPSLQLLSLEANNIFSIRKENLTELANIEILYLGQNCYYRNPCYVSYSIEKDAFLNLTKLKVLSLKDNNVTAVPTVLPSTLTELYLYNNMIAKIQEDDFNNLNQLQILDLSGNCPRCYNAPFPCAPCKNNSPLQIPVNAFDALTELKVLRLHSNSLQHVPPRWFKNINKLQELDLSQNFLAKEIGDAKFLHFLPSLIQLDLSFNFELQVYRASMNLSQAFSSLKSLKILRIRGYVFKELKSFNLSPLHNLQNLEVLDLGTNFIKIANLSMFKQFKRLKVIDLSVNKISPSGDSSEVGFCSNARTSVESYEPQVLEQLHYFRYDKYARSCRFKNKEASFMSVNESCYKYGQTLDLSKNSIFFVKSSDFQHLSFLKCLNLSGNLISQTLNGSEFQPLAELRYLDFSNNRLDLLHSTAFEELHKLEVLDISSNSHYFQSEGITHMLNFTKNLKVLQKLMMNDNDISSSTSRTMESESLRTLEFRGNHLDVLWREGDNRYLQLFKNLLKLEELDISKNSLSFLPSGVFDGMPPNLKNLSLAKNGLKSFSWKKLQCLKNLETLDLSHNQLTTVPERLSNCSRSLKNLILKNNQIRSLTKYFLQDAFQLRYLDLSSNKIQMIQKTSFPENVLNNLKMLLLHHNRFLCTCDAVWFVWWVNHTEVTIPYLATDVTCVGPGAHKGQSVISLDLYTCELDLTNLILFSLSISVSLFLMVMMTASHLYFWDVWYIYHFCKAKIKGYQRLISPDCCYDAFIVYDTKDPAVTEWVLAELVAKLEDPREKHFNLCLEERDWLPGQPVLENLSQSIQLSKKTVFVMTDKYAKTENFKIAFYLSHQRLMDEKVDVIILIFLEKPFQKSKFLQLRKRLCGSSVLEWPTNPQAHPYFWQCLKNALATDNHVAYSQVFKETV
Experimental: as §1

SMILES | IC50 (human TLR8) [nM] | IC50 (human TLR9) [nM] | IC50 (human TLR7) [nM]
Cc1cc(-c2[nH]c3ccc(C(C)(C)C(=O)N[C@H]4CCNC4)cc3c2C(C)C)ccn1 [Example 138, (S)-2-(3-isopropyl-2-(2-methylpyridin-4-yl)-1H-indol-5-yl)-2-methyl-N-(pyrrolidin-3-yl)propanamide] | 64 | 1170 | 52
Cc1cc(-c2[nH]c3ccc(C(C)(C)C(=O)NC4CCN(C(C)C)CC4)cc3c2C(C)C)ccn1 [Example 139, 2-(3-isopropyl-2-(2-methylpyridin-4-yl)-1H-indol-5-yl)-N-(1-isopropylpiperidin-4-yl)-2-methylpropanamide] | 154 | 1140 | 25
Cc1cc(-c2[nH]c3ccc(C(C)(C)C(=O)N[C@@H]4CCCNC4)cc3c2C(C)C)ccn1 [Example 140, (R)-2-(3-isopropyl-2-(2-methylpyridin-4-yl)-1H-indol-5-yl)-2-methyl-N-(piperidin-3-yl)propanamide] | 32 | 1220 | 40
Cc1cc(-c2[nH]c3ccc(C(C)(C)C(=O)N[C@@H]4CCNC4)cc3c2C(C)C)ccn1 [Example 141, (R)-2-(3-isopropyl-2-(2-methylpyridin-4-yl)-1H-indol-5-yl)-2-methyl-N-(pyrrolidin-3-yl)propanamide] | 68 | 895 | 58
Cc1cc(-c2[nH]c3ccc(C(C)(C)C(=O)NC4CN5CCC4CC5)cc3c2C(C)C)ccn1 (stereo not drawn) [Example 142, 2-(3-isopropyl-2-(2-methylpyridin-4-yl)-1H-indol-5-yl)-2-methyl-N-(quinuclidin-3-yl)propanamide] | 120 | 790 | 16
Cc1cc(-c2[nH]c3ccc(C(C)(C)C(=O)NC4CCNCC4)cc3c2C(C)C)ccn1 [Example 143, 2-(3-isopropyl-2-(2-methylpyridin-4-yl)-1H-indol-5-yl)-2-methyl-N-(piperidin-4-yl)propanamide] | 147 | 562 | 35
Cc1cc(-c2[nH]c3ccc(C(C)(C)C(=O)NC4CCC5CNCC54)cc3c2C(C)C)ccn1 (stereo not drawn) [Example 144, 2-(3-isopropyl-2-(2-methylpyridin-4-yl)-1H-indol-5-yl)-2-methyl-N-(octahydrocyclopenta[c]pyrrol-4-yl)propanamide] | 64 | 677 | 26
Cc1cc(-c2[nH]c3ccc(C(C)(C)C(=O)NC4CCN(C5CCNC5)CC4)cc3c2C(C)C)ccn1 (stereo not drawn) [Example 145, 2-(3-isopropyl-2-(2-methylpyridin-4-yl)-1H-indol-5-yl)-2-methyl-N-(1-(pyrrolidin-3-yl)piperidin-4-yl)propanamide] | 783 | 4500 | 554
Cc1cc(-c2[nH]c3ccc(C(C)(C)C(=O)NC4CCC5CNCC54)cc3c2C(C)C)ccn1 (stereo not drawn) [Example 146, 2-(3-isopropyl-2-(2-methylpyridin-4-yl)-1H-indol-5-yl)-2-methyl-N-(octahydrocyclopenta[c]pyrrol-4-yl)propanamide] | 122 | 979 | 160
Cc1cc(-c2[nH]c3ccc(C(C)(C)C(=O)NC4CCC5CNCC54)cc3c2C(C)C)ccn1 (stereo not drawn) [Example 147, 2-(3-isopropyl-2-(2-methylpyridin-4-yl)-1H-indol-5-yl)-2-methyl-N-(octahydrocyclopenta[c]pyrrol-4-yl)propanamide] | 92 | 1210 | 109
Cc1cc(-c2[nH]c3ccc(C(C)(C)C(=O)N4CC5CC(C4)C5N)cc3c2C(C)C)ccn1 (stereo not drawn) [Example 148, 1-(6-amino-3-azabicyclo[3.1.1]heptan-3-yl)-2-(3-isopropyl-2-(2-methylpyridin-4-yl)-1H-indol-5-yl)-2-methylpropan-1-one] | 79 | 2640 | 88
Cc1cc(-c2[nH]c3ccc(C(C)(C)C(=O)N4CC5CN(C)CC5C4)cc3c2C(C)C)ccn1 (stereo not drawn) [Example 149, 2-(3-isopropyl-2-(2-methylpyridin-4-yl)-1H-indol-5-yl)-2-methyl-1-(5-methylhexahydropyrrolo[3,4-c]pyrrol-2(1H)-yl)propan-1-one] | 277 | 3050 | 17
Cc1cc(-c2[nH]c3ccc(C(C)(C)C(=O)N4CCC5(CCN(C)C5)CC4)cc3c2C(C)C)ccn1 [Example 150, 2-(3-isopropyl-2-(2-methylpyridin-4-yl)-1H-indol-5-yl)-2-methyl-1-(2-methyl-2,8-diazaspiro[4.5]decan-8-yl)propan-1-one] | 141 | 1490 | 22
Cc1cc(-c2[nH]c3ccc(C(C)(C)C(=O)N4CCC(CN)C4)cc3c2C(C)C)ccn1 (stereo not drawn) [Example 151, 1-(3-(aminomethyl)pyrrolidin-1-yl)-2-(3-isopropyl-2-(2-methylpyridin-4-yl)-1H-indol-5-yl)-2-methylpropan-1-one] | 175 | 7090 | 72
Cc1cc(-c2[nH]c3ccc(C(C)(C)C(=O)N4CCCC5(CCCCC5N)C4)cc3c2C(C)C)ccn1 (stereo not drawn) [Example 152, 1-(7-amino-2-azaspiro[5.5]undecan-2-yl)-2-(3-isopropyl-2-(2-methylpyridin-4-yl)-1H-indol-5-yl)-2-methylpropan-1-one] | 46 | 2640 | 31
Cc1cc(-c2[nH]c3ccc(C(C)(C)C(=O)N4CCC(N)CC4)cc3c2C(C)C)ccn1 [Example 153, 1-(4-aminopiperidin-1-yl)-2-(3-isopropyl-2-(2-methylpyridin-4-yl)-1H-indol-5-yl)-2-methylpropan-1-one] | 91 | 566 | 159
Cc1cc(-c2[nH]c3ccc(C(C)(C)C(=O)N4CCC[C@H](N)C4)cc3c2C(C)C)ccn1 [Example 155, (S)-1-(3-aminopiperidin-1-yl)-2-(3-isopropyl-2-(2-methylpyridin-4-yl)-1H-indol-5-yl)-2-methylpropan-1-one] | 143 | 2040 | 113
Cc1cc(-c2[nH]c3ccc(C(C)(C)C(=O)N4CCCC(CN)C4)cc3c2C(C)C)ccn1 (stereo not drawn) [Example 156, 1-(3-(aminomethyl)piperidin-1-yl)-2-(3-isopropyl-2-(2-methylpyridin-4-yl)-1H-indol-5-yl)-2-methylpropan-1-one] | 52 | 927 | 53
Cc1cc(-c2[nH]c3ccc(C(C)(C)C(=O)N4CCCCC4CN)cc3c2C(C)C)ccn1 (stereo not drawn) [Example 157, 1-(2-(aminomethyl)piperidin-1-yl)-2-(3-isopropyl-2-(2-methylpyridin-4-yl)-1H-indol-5-yl)-2-methylpropan-1-one] | 28 | 997 | 6.3
Cc1cc(-c2[nH]c3ccc(C(C)(C)C(=O)N4CCC(CN)CC4)cc3c2C(C)C)ccn1 [Example 158, 1-(4-(aminomethyl)piperidin-1-yl)-2-(3-isopropyl-2-(2-methylpyridin-4-yl)-1H-indol-5-yl)-2-methylpropan-1-one] | 500 | 3030 | 79
Cc1cc(-c2[nH]c3ccc(C(C)(C)C(=O)NCC4CCCCN4)cc3c2C(C)C)ccn1 (stereo not drawn) [Example 159, 2-(3-isopropyl-2-(2-methylpyridin-4-yl)-1H-indol-5-yl)-2-methyl-N-(piperidin-2-ylmethyl)propanamide] | 18 | 855 | 139
Cc1cc(-c2[nH]c3ccc(C(C)(C)C(=O)NC[C@H]4CCNC4)cc3c2C(C)C)ccn1 [Example 160, (S)-2-(3-isopropyl-2-(2-methylpyridin-4-yl)-1H-indol-5-yl)-2-methyl-N-(pyrrolidin-3-ylmethyl)propanamide] | 1030 | 5090 | 164
Cc1cc(-c2[nH]c3ccc(C(C)(C)C(=O)N(C)C4CCCNC4)cc3c2C(C)C)ccn1 (stereo not drawn) [Example 161, 2-(3-isopropyl-2-(2-methylpyridin-4-yl)-1H-indol-5-yl)-N,2-dimethyl-N-(piperidin-3-yl)propanamide] | 31 | 1740 | 42
Cc1cc(-c2[nH]c3ccc(C(C)(C)C(=O)N(C)C4CN5CCC4CC5)cc3c2C(C)C)ccn1 (stereo not drawn) [Example 162, 2-(3-isopropyl-2-(2-methylpyridin-4-yl)-1H-indol-5-yl)-N,2-dimethyl-N-(quinuclidin-3-yl)propanamide] | 135 | 3520 | 24
Cc1cc(-c2[nH]c3ccc(C(C)(C)C(=O)NCC4CCCNC4)cc3c2C(C)C)ccn1 (stereo not drawn) [Example 163, 2-(3-isopropyl-2-(2-methylpyridin-4-yl)-1H-indol-5-yl)-2-methyl-N-(piperidin-3-ylmethyl)propanamide] | 676 | 1880 | 238
Cc1cc(-c2[nH]c3ccc(C(C)(C)C(=O)NCC4CCNCC4)cc3c2C(C)C)ccn1 [Example 164, 2-(3-isopropyl-2-(2-methylpyridin-4-yl)-1H-indol-5-yl)-2-methyl-N-(piperidin-4-ylmethyl)propanamide] | 617 | 2530 | 331
Cc1cc(-c2[nH]c3ccc(C(C)(C)C(=O)N(C)C4CCNCC4)cc3c2C(C)C)ccn1 [Example 165, 2-(3-isopropyl-2-(2-methylpyridin-4-yl)-1H-indol-5-yl)-N,2-dimethyl-N-(piperidin-4-yl)propanamide] | 63 | 908 | 61
Cc1cc(-c2[nH]c3ccc(C(C)(C)C(=O)NC4C[C@H]5CC[C@@H](C4)N5C)cc3c2C(C)C)ccn1 (stereo partly drawn) [Example 166, 2-(3-isopropyl-2-(2-methylpyridin-4-yl)-1H-indol-5-yl)-2-methyl-N-((1R,5S)-8-methyl-8-azabicyclo[3.2.1]octan-3-yl)propanamide] | 135 | 8230 | 22
